We go through 24 compounds from US10106534B2 (CELGENE QUANTICEL RESEARCH, INC., priority 2014, dated 2018).

The IC50 is the concentration needed to halve the response being measured.

One assay deals with JMJD2C (Homo sapiens (Human), UniProt Q9H3R0). Kind of assay: In vitro enzyme inhibition assay for JMJD2C activity (TR-FRET). Format: biochemical. The procedure:
This assay determines the ability of a test compound to inhibit JMJD2C demethylase activity. Baculovirus expressed JMJD2C (GenBank Accession #BC143571, AA 2-372) was purchased from BPS Bioscience (Cat#50105).
The ability of test compounds to inhibit the activity of JMJD2C was determined in 384-well plate format under the following reaction conditions: 0.3 nM JMJD2C, 300 nM H3K9me3-biotin labeled peptide (Anaspec cat #64360), 2 μM alpha-ketoglutaric acid in assay buffer of 50 mM HEPES, pH7.3, 0.005% Brij35, 0.5 mM TCEP, 0.2 mg/ml BSA, 50 μM sodium L-ascorbate, and 2 μM ammonium iron(II) sulfate. Reaction product was determined quantitatively by TR-FRET after the addition of detection reagent Phycolink Streptavidin-allophycocyanin (Prozyme) and Europium-anti-di-methylated histone H3 lysine 9 (H3K9me2) antibody (PerkinElmer) in the presence of 5 mM EDTA in LANCE detection buffer (PerkinElmer) at a final concentration of 50 nM and 1 nM, respectively.
The assay reaction was initiated by the following: 2 μl of the mixture of 900 nM H3K9me3-biotin labeled peptide and 6 μM alpha-ketoglutaric acid with 2 μl of 11-point serial diluted inhibitor in 3% DMSO were added to each well of the plate, followed by the addition of 2 μl of 0.9 nM JMJD2C to initiate the reaction. The reaction mixture was incubated at room temperature for 30 minutes, and terminated by the addition of 6 μl of 5 mM EDTA in LANCE detection buffer containing 100 nM Phycolink Streptavidin-allophycocyanin and 2 nM Europium-anti-H3K9me2 antibody. Plates were read by EnVisionMultilabel Reader in TR-FRET mode (excitation at 320 nm, emission at 615 nm and 665 nm) after 1 hour incubation at room temperature. A ratio was calculated (665/615) for each well and fitted to determine inhibition constant (IC50).

Assay [1] concerns KYSE-150 esophageal carcinoma cell line. Kind of assay: In vitro cell-based assay: cellular proliferation via BrdU incorporation (ELISA). Also on record: species or system human. The settings on record: KYSE-150, 168 hours compound incubation. The method, then:
The primary cellular assay for JMJD2C inhibition is an assay which measures cellular proliferation via Bromodeoxyuridine (BrdU) incorporation after 168 hours of compound incubation. Cell lines tested include the JMJD2C gene amplified cell line KYSE-150. This is a quantitative ELISA assay measuring DNA incorporation of BrdU during S-phase as a direct readout of cellular proliferation.
Assay Principle: This is a colorimetric immunoassay for the quantification of cell proliferation. Cells treated for 168 hours with test compounds are assayed for their ability to go through S-phase as a measure of their proliferative potential.
Assay Method: The human KYSE-150 (SMAD4 mut, TP53 mut) esophageal carcinoma cell line was seeded at 2,000 cells/well on a 96-well tissue culture treated plate. After an overnight incubation, cells were treated with compound in an 11-point dilution series with final concentrations ranging from 100 μM to 2 nM. Cells were then incubated in the presence of compound for 168 hours. After compound incubation the cells were assayed using a BrdU Cell Proliferation ELISA (Roche). The cells were first incubated with BrdU labeling reagent for 2 hours. After 2 hours, the BrdU incorporated cells were fixed and denatured, probed with an anti-BrdU-Peroxidase antibody for 1.5 hours and washed. Finally, a tetramethylbenzidine peroxidase substrate was added to each well for 15 minutes followed by a H2SO4 stop solution. The plate was read at 450 nm, and the raw optical density data was transferred into XLFit (IDBS) for IC50 calculation using the formula: fit=(D+((Vmax*(x^n))/((x^n)+(Km^n))))
(Uptake of a labelled nucleoside into DNA is a usual measure of proliferation.)

Sequence of JMJD2C (Q9H3R0 2-372): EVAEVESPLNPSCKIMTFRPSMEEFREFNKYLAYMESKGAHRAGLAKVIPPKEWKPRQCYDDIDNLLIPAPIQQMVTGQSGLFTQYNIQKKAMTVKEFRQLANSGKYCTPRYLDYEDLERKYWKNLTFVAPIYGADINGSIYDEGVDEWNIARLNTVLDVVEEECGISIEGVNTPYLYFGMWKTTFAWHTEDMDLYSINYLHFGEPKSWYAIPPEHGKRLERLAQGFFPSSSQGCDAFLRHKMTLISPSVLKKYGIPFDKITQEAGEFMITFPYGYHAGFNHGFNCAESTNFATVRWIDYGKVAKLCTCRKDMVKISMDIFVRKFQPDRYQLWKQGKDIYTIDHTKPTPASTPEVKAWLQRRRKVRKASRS

Consider “3-({[(1R)-6-[cyclopentyl(methyl)amino]-1,2,3,4-tetrahydronaphthalen-1-yl]methyl}amino)pyridine-4-carboxylic acid [Example 133]”, for which the IC50 was 100 to 1000 nM against JMJD2C and 1000 to 10000 nM in assay [1].

On to “3-({[(1R)-6-[methyl(2-methyl-1,3-thiazol-4-yl)amino]-1,2,3,4-tetrahydronaphthalen-1-yl]methyl}amino)pyridine-4-carboxylic acid [Example 139]”, for which the IC50 against JMJD2C was 100 to 1000 nM; in assay [1] it was at most 100 nM.

The compound `C[C@@H](O)c1ccc(N(C)c2ccc3c(c2)CCC[C@H]3CNc2cnccc2C(=O)O)cc1` (single isomer, unassigned) [Example 168] showed an IC50 in assay [1] (Homo sapiens) of at most 100 nM.

Compound `C[C@H](O)c1ccc(N(C)c2ccc3c(c2)CCC[C@H]3CNc2cnccc2C(=O)O)cc1` (single isomer, unassigned) [Example 169] showed an IC50 in assay [1] (Homo sapiens) of at most 100 nM.

On to `O=C(O)c1ccncc1NCC1CCCc2cc(N3CCCC3=O)ccc21` (stereo not drawn) [Example 3, 3-({[6-(2-oxopyrrolidin-1-yl)-1,2,3,4-tetrahydronaphthalen-1-yl]methyl}amino)pyridine-4-carboxylic acid], for which the IC50 at JMJD2C was 100 to 1000 nM; in assay [1] (Homo sapiens), above 10000 nM.

`O=C(O)c1ccncc1NCC1CCCc2cc(N3CCCc4ccccc43)ccc21` (stereo not drawn) [Example 4, 3-({[6-(1,2,3,4-tetrahydroquinolin-1-yl)-1,2,3,4-tetrahydronaphthalen-1-yl]methyl}amino)pyridine-4-carboxylic acid]: the IC50 at JMJD2C fell in the range of 1000 to 10000 nM; in assay [1] (Homo sapiens), 100 to 1000 nM.

In the case of `O=C(O)c1ccncc1NCC1CCCc2cc(N3CCc4ccccc43)ccc21` (stereo not drawn) [Example 5, 3-({[6-(2,3-dihydro-1H-indol-1-yl)-1,2,3,4-tetrahydronaphthalen-1-yl]methyl}amino)pyridine-4-carboxylic acid], the IC50 against JMJD2C is 1000 to 10000 nM; in assay [1] (Homo sapiens) it was 100 to 1000 nM.

In the case of `CN(c1ccc2c(c1)CCC[C@H]2CNc1cnccc1C(=O)O)c1ccccc1F` [Example 6, 3-({[(1R)-6-[(2-fluorophenyl)(methyl)amino]-1,2,3,4-tetrahydronaphthalen-1-yl]methyl}amino)pyridine-4-carboxylic acid], the IC50 was 100 to 1000 nM at JMJD2C and at most 100 nM in assay [1] (Homo sapiens).

For the compound `CN(c1cccc(F)c1)c1ccc2c(c1)CCC[C@H]2CNc1cnccc1C(=O)O` [Example 7, 3-({[(1R)-6-[(3-fluorophenyl)(methyl)amino]-1,2,3,4-tetrahydronaphthalen-1-yl]methyl}amino)pyridine-4-carboxylic acid], the IC50 on JMJD2C was 100 to 1000 nM; in assay [1] (Homo sapiens), at most 100 nM.

Regarding `CN(c1ccc(F)cc1)c1ccc2c(c1)CCC[C@H]2CNc1cnccc1C(=O)O` [Example 8, 3-({[(1R)-6-[(4-fluorophenyl)(methyl)amino]-1,2,3,4-tetrahydronaphthalen-1-yl]methyl}amino)pyridine-4-carboxylic acid], the results for the IC50 (against JMJD2C; in assay [1] (Homo sapiens)) were 100 to 1000 nM and at most 100 nM, respectively.

Take `CN(c1ccc(Cl)cc1)c1ccc2c(c1)CCC[C@H]2CNc1cnccc1C(=O)O` [Example 9, 3-({[(1R)-6-[(4-chlorophenyl)(methyl)amino]-1,2,3,4-tetrahydronaphthalen-1-yl]methyl}amino)pyridine-4-carboxylic acid]: the results for the IC50 (against JMJD2C; in assay [1] (Homo sapiens)) were 1000 to 10000 nM and at most 100 nM, respectively.

`O=C(O)c1ccncc1NC[C@@H]1CCOc2cc(C3CCCCC3)ccc21` [Example 35, 3-({[(4R)-7-cyclohexyl-3,4-dihydro-2H-1-benzopyran-4-yl]methyl}amino)pyridine-4-carboxylic acid] returned an IC50 in assay [1] (Homo sapiens) of 1000 to 10000 nM.

As to `CN(c1ccc2c(c1)CCC[C@H]2CNc1cnccc1C(=O)O)C1CCOCC1` [Example 113, 3-({[(1R)-6-[methyl(oxan-4-yl)amino]-1,2,3,4-tetrahydronaphthalen-1-yl]methyl}amino)pyridine-4-carboxylic acid], at JMJD2C, the IC50 lay within 100 to 1000 nM.

`COc1cc(F)ccc1-c1ccc2c(c1)OCC[C@H]2CNc1cnccc1C(=O)O` [Example 118, 3-({[(4R)-7-(4-fluoro-2-methoxyphenyl)-3,4-dihydro-2H-1-benzopyran-4-yl]methyl}amino)pyridine-4-carboxylic acid] gave an IC50 against JMJD2C of 100 to 1000 nM.

On to `CN(c1ccc(C(F)(F)F)cc1)c1ccc2c(c1)OCC[C@H]2CNc1cnccc1C(=O)O` [Example 128, 3-({[(4R)-7-{methyl[4-(trifluoromethyl)phenyl]amino}-3,4-dihydro-2H-1-benzopyran-4-yl]methyl}amino)pyridine-4-carboxylic acid], for which the IC50 on JMJD2C lay in the range of 1000 to 10000 nM.

For the compound `O=C(O)c1ccncc1NCC1CCOc2cc(N(CC(F)(F)F)c3ccccc3)ccc21` (stereo not drawn) [Example 129, 3-[({7-[phenyl(2,2,2-trifluoroethyl)amino]-3,4-dihydro-2H-1-benzopyran-4-yl}methyl)amino]pyridine-4-carboxylic acid], the IC50 at JMJD2C was 1000 to 10000 nM.

On JMJD2C, `CN(c1ccc2c(c1)CCC[C@H]2CNc1cnccc1C(=O)O)c1ccc2occc2c1` [Example 137, 3-({[(1R)-6-[(1-benzofuran-5-yl)(methyl)amino]-1,2,3,4-tetrahydronaphthalen-1-yl]methyl}amino)pyridine-4-carboxylic acid] gave an IC50 of 1000 to 10000 nM.

Compound `Cc1cccc(N(C)c2ccc3c(c2)CCC[C@H]3CNc2cnccc2C(=O)O)c1` [Example 143, 3-({[(1R)-6-[methyl(3-methylphenyl)amino]-1,2,3,4-tetrahydronaphthalen-1-yl]methyl}amino)pyridine-4-carboxylic acid] had an IC50 at JMJD2C of 1000 to 10000 nM.

At JMJD2C, `O=C(O)c1ccncc1NCC1NCCc2ccccc21` (stereo not drawn) [Example 149, 3-[(1,2,3,4-tetrahydroisoquinolin-1-ylmethyl)amino]pyridine-4-carboxylic acid] showed an IC50 of 100 to 1000 nM.

Consider `O=C(O)c1ccncc1NC[C@@H]1CCCc2cc(N3CCCCc4ccccc43)ccc21` [Example 162, 3-({[(1R)-6-(2,3,4,5-tetrahydro-1H-1-benzazepin-1-yl)-1,2,3,4-tetrahydronaphthalen-1-yl]methyl}amino)pyridine-4-carboxylic acid], for which, on JMJD2C, the IC50 was in the range of 1000 to 10000 nM.

In turn, `CN(c1ccc(OC(F)(F)F)cc1)c1ccc2c(c1)CCC[C@H]2CNc1cnccc1C(=O)O` [Example 181, 3-({[(1R)-6-{methyl[4-(trifluoromethoxy)phenyl]amino}-1,2,3,4-tetrahydronaphthalen-1-yl]methyl}amino)pyridine-4-carboxylic acid] displayed an IC50 against JMJD2C of 100 to 1000 nM.

`CN(c1ccc(N2CC(F)(F)C2)cc1)c1ccc2c(c1)CCC[C@H]2CNc1cnccc1C(=O)O` [Example 195, 3-({[(1R)-6-{[4-(3,3-difluoroazetidin-1-yl)phenyl](methyl)amino}-1,2,3,4-tetrahydronaphthalen-1-yl]methyl}amino)pyridine-4-carboxylic acid] yielded an IC50 against JMJD2C of 100 to 1000 nM.

The compound `CN(c1ccc(CC2CC2)cc1)c1ccc2c(c1)OCC[C@H]2CNc1cnccc1C(=O)O` [Example 215, 3-({[(4R)-7-{[4-(cyclopropylmethyl)phenyl](methyl)amino}-3,4-dihydro-2H-1-benzopyran-4-yl]methyl}amino)pyridine-4-carboxylic acid] registered an IC50 against JMJD2C of 100 to 1000 nM.

As for `CN(c1ccc(C(=O)C2CC2)cc1)c1ccc2c(c1)OCC[C@H]2CNc1cnccc1C(=O)O` [Example 216, 3-({[(4R)-7-[(4-cyclopropanecarbonylphenyl)(methyl)amino]-3,4-dihydro-2H-1-benzopyran-4-yl]methyl}amino)pyridine-4-carboxylic acid], the IC50 against JMJD2C lay within 100 to 1000 nM.
